Experimental data reported in patent publication US9051311B2, “Sulfamide sodium channel inhibitors” (AMGEN INC., priority 2012, dated 2015).
pIC50: −log10 of the molar value.

Key:
Nav 1.7 [1] = target: T1, Nav 1.7 (Homo sapiens (Human), UniProt Q15858); experiment: Nav 1.7 IonWorks Quattro (IWQ) in vitro assay, population patch-clamp; format: cell-based; conditions: 293 cells stably transfected with Nav 1.7; block at 26th pulse to −20 mV;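 further: cells held at −110 mV for 3 s, then 26 pulses of 150 ms at 5 Hz, leak-corrected peak current, percent block measured before and after compound, 3–8 min exposure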
T1 sequence (Q15858 whole entry): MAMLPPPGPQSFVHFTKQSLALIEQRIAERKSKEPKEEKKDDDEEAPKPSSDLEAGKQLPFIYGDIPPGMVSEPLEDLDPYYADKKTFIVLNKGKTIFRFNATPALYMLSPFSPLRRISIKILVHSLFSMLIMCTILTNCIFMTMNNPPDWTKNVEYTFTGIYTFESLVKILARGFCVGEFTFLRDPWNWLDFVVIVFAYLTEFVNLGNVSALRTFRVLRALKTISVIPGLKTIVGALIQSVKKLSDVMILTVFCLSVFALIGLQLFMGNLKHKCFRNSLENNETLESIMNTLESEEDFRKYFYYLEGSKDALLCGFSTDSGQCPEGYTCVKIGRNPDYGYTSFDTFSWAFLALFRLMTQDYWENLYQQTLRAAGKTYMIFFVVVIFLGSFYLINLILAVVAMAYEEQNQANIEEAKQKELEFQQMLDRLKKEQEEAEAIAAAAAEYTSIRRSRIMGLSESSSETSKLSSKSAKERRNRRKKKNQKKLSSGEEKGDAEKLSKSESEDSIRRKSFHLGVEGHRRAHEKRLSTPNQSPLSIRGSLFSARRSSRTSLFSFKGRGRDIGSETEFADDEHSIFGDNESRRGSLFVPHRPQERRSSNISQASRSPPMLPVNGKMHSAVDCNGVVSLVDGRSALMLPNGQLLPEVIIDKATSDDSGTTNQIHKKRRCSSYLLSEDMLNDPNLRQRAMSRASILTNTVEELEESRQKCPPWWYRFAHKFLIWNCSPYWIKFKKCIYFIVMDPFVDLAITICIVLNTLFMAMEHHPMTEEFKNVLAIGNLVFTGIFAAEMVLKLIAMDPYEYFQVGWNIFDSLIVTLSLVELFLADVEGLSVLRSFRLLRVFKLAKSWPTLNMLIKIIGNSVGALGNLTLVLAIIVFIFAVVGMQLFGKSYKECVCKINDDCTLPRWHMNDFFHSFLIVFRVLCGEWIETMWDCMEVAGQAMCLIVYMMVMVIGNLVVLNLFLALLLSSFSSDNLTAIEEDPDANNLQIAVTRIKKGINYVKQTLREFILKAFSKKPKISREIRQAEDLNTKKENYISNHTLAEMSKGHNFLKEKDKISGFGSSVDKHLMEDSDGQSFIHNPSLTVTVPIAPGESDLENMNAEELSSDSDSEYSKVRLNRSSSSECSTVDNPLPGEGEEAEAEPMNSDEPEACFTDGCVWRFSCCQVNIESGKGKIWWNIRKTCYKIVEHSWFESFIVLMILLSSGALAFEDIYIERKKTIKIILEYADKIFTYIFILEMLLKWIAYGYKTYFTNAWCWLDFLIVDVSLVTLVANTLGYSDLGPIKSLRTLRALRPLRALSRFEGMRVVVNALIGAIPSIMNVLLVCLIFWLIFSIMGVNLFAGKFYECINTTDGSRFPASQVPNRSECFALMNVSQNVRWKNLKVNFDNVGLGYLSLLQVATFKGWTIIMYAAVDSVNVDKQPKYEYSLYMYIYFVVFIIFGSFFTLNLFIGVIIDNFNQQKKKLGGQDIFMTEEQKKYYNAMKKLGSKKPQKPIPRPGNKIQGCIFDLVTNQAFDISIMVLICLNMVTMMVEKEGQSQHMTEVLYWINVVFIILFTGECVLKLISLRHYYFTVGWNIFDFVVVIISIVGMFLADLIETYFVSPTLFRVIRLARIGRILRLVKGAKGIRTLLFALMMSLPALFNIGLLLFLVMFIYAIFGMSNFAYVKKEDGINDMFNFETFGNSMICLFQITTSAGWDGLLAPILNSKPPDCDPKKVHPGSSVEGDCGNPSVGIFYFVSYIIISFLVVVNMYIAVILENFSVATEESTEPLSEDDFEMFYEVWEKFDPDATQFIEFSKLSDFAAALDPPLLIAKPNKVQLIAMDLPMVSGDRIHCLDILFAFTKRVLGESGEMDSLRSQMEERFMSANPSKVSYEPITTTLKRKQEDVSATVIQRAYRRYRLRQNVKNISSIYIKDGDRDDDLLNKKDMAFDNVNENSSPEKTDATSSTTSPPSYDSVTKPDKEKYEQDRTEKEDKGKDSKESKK
Description: Nav 1.7 and Nav 1.5 Ion Works Quattro (IWQ) In Vitro Assays
293 cells stably transfected with either Nav 1.7 or with Nav 1.5 were recorded in population patch-clamp mode with the IonWorks® Quattro automated electrophysiology system in accordance with the manufacturer's specifications (Molecular Devices, LLC, Sunnyvale, Calif.). Sodium channel currents were measured in response to a train of depolarizations that induced successively greater inactivation.
Cells were held at −110 mV for three seconds (Nav 1.7) or half a second (Nav 1.5) from a holding voltage of −15 mV, then put through a series of 26 pulses of 150 msec duration to −20 mV at a frequency of 5 Hz. Cells were then left unclamped for a period of 3 to 8 minutes while a single concentration of test compound was added. Cells were then reclamped and put through the same voltage protocol. Current at the end of the 26th pulse to −20 mV was subtracted from the peak current evoked by the 26th pulse to −20 mV to correct for leak current. Percent block was calculated for each concentration in duplicate, and IC50 curves were fitted to percent block as a function of concentration.

Nav 1.7 [2] = target: T1, Nav 1.7; experiment: Nav 1.7 in vitro PatchExpress (PX) assay, whole cell voltage clamp; format: cell-based; conditions: 293 cells stably transfected with human Nav1.7; partially inactivated state (20 to 50% inactivation)
Description: Nav 1.7 In Vitro PatchExpress (PX) Assay
293 cells stably transfected with human Nav1.7 were recorded in whole cell voltage clamp mode with the PatchXpress automated electrophysiology system (Molecular Devices, LLC, Sunnyvale, Calif.). Compound effects were measured on a partially inactivated state of the sodium channel. Cells were clamped to a holding potential yielding 20 to 50% inactivation. To elicit sodium current, channels were activated by pulsing to −10 mV for 20 msec. This voltage protocol was repeated at a rate of 0.1 Hz throughout the experiment. A single concentration of test compound was applied to cells for a duration of 3 minutes. Peak sodium current was measured at the end of the compound addition period to determine percent inhibition.

Nav 1.5 = Nav 1.5 (Homo sapiens (Human), UniProt Q14524); experiment: cell-based;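 further: HEK293 cells stably expressing Nav1.5, sodium current at the 26th of 26 pulses to −20 mV (150 ms, 5 Hz) after compound versus before, leak-corrected, 3–8 min exposure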
Nav 1.5, sequence (Q14524 whole entry): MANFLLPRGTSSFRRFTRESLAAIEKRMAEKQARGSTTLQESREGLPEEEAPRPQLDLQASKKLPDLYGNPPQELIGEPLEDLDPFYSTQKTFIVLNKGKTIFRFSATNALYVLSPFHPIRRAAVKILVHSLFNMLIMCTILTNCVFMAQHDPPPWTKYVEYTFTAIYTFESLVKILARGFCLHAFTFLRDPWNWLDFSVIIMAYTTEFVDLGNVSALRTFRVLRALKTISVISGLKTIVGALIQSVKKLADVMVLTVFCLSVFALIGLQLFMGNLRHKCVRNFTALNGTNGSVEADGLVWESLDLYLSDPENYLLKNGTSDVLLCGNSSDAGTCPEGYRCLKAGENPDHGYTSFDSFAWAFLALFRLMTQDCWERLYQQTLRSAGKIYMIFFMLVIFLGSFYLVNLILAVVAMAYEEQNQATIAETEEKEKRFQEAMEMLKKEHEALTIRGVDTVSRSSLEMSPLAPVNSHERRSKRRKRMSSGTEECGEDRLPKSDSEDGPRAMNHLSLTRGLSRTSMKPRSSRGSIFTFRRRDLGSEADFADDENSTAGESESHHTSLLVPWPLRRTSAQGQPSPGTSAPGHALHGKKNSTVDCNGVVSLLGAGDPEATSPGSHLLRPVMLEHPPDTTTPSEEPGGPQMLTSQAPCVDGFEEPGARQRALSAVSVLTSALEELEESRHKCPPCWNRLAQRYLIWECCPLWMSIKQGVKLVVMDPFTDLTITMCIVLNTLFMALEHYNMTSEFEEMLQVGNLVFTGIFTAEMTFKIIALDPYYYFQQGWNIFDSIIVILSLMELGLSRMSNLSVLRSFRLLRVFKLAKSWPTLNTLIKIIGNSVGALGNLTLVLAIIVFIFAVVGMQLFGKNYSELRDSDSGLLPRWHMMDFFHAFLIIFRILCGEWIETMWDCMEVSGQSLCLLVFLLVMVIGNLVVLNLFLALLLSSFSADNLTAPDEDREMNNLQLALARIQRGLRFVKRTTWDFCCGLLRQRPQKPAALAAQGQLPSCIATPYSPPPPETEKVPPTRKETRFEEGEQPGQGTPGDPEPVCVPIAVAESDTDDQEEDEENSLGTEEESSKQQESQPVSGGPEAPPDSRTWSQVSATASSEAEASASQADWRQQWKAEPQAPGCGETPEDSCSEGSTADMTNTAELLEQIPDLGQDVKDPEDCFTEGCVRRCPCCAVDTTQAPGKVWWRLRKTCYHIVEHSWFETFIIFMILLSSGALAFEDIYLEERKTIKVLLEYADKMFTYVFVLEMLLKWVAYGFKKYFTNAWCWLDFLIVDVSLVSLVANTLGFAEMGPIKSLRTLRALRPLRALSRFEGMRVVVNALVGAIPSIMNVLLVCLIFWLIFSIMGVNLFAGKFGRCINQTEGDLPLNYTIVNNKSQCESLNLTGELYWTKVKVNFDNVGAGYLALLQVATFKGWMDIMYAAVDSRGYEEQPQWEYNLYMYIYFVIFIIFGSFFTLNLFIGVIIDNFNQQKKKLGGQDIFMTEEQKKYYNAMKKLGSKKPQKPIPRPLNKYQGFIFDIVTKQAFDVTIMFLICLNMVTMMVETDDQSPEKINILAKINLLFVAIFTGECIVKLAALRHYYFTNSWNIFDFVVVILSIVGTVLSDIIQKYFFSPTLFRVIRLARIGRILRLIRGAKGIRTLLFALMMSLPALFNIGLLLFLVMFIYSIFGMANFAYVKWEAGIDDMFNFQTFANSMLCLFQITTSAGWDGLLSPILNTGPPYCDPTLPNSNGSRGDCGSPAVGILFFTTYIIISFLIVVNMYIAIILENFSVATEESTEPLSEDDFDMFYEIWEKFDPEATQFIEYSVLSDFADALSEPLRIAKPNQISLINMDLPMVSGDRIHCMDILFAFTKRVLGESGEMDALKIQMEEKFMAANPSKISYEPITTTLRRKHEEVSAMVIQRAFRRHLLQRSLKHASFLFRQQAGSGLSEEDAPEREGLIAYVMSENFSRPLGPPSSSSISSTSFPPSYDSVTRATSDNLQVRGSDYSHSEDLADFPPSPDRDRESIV

Row | pIC50 (Nav 1.7 [1]) | pIC50 (Nav 1.7 [2]) | Compound | pIC50 (Nav 1.5)
1 | 6.62 | 5.93 | CN1CC=C(c2cc(C(F)(F)F)ccc2-c2cccc3c2CCN(S(=O)(=O)Nc2ncc(F)s2)C3)CC1 [Example 39, N-(5-Fluorothiazol-2-yl)-5-(2-(1-methyl-1,2,3,6-tetrahydropyridin-4-yl)-4-(trifluoromethyl)phenyl)-3,4-dihydroisoquinoline-2(1H)-sulfonamide] | < 5.00
2 | 5.55 | 4.92 | CN1CC=C(c2ccc(C(F)(F)F)cc2-c2cccc3c2CCN(S(=O)(=O)Nc2ncc(F)s2)C3)CC1 [Example 40, N-(5-Fluorothiazol-2-yl)-5-(2-(1-methyl-1,2,3,6-tetrahydropyridin-4-yl)-5-(trifluoromethyl)phenyl)-3,4-dihydroisoquinoline-2(1H)-sulfonamide] | < 5.00
3 | 6.38 | 5.70 | Cn1nccc1-c1cc(C(F)(F)F)ccc1-c1cccc2c1CCN(S(=O)(=O)Nc1nccs1)C2 [Example 3, 5-(2-(1-methyl-1H-pyrazol-5-yl)-4-(trifluoromethyl)phenyl)-N-(thiazol-2-yl)-3,4-dihydroisoquinoline-2(1H)-sulfonamide] | < 5.00
4 | 6.40 | 5.13 | CN1CCN(c2cc(C(F)(F)F)ccc2-c2cccc3c2CCN(S(=O)(=O)Nc2ncc(F)s2)C3)CC1 [Example 41, N-(5-Fluorothiazol-2-yl)-5-(2-(4-methylpiperazin-1-yl)-4-(trifluoromethyl)phenyl)-3,4-dihydroisoquinoline-2(1H)-sulfonamide] | < 5.00
5 | 5.33 | < 4.52 | COc1cccc(OC)c1-c1cccc2c1CCN(S(=O)(=O)Nc1ncns1)C2 [Example 28, 5-(2,6-Dimethoxyphenyl)-N-(1,2,4-thiadiazol-5-yl)-3,4-dihydroisoquinoline-2(1H)-sulfonamide] | < 5.00
6 | 6.12 | 5.76 | O=S(=O)(Nc1ncns1)N1CCc2c(cccc2-c2ccc(C(F)(F)F)cc2N2CCOCC2)C1 [Example 31, 5-(2-Morpholino-4-(trifluoromethyl)phenyl)-N-(1,2,4-thiadiazol-5-yl)-3,4-dihydroisoquinoline-2(1H)-sulfonamide] | < 5.00
7 | 5.26 | 5.13 | O=S(=O)(Nc1ncns1)N1CCc2c(cccc2-c2ccc(Cl)cc2)C1 [Example 10] | < 5.00
8 | 7.44 | 6.92 | Cn1nccc1-c1cc(C(F)(F)F)ccc1-c1cccc2c1CCN(S(=O)(=O)Nc1ncns1)C2 [Example 1, 5-(2-(1-Methyl-1H-pyrazol-5-yl)-4-(trifluoromethyl)phenyl)-N-(1,2,4-thiadiazol-5-yl)-3,4-dihydroisoquinoline-2(1H)-sulfonamide] | < 5.00
9 | 4.90 | 4.84 | Cn1nccc1-c1cc(C(F)(F)F)ccc1-c1cccc2c1CCN(S(=O)(=O)Nc1ncccn1)C2 [Example 49, 5-(2-(1-Methyl-1H-pyrazol-5-yl)-4-(trifluoromethyl)phenyl)-N-(pyrimidin-2-yl)-3,4-dihydroisoquinoline-2(1H)-sulfonamide] | < 5.00
10 | 5.74 | 5.50 | O=S(=O)(Nc1ncns1)N1CCc2c(cccc2-c2ccc(C(F)(F)F)cc2F)C1 [Example 8, 5-(2-Fluoro-4-(trifluoromethyl)phenyl)-N-(1,2,4-thiadiazol-5-yl)-3,4-dihydroisoquinoline-2(1H)-sulfonamide] | < 5.00

Row | Compound | pIC50 (Nav 1.7 [1]) | pIC50 (Nav 1.7 [2]) | pIC50 (Nav 1.5)
11 | C[N+]1(C)CC=C(c2cc(C(F)(F)F)ccc2-c2cccc3c2CCN(S(=O)(=O)Nc2ncns2)C3)CC1 [Example 14, 4-(2-(2-(N-(1,2,4-Thiadiazol-5-yl)sulfamoyl)-1,2,3,4-tetrahydroisoquinolin-5-yl)-5-(trifluoromethyl)phenyl)-1,1-dimethyl-1,2,3,6-tetrahydropyridin-1-ium hydroxide] | 6.16 | 5.45 | < 5.00
